# Measured values: patent US20100093723A1, “HETEROCYCLYL AND CYCLOALKYL SUBSTITUTED THIENO[2,3 d]PYRIMIDINE AND THEIR USE AS ADENOSINE A2a RECEPTOR ANTAGONISTS” (priority 2008, published 2010)
# Assays:
# [1] = molecular target: T1, human adenosine A1 receptor (Homo sapiens, UniProt P30542); test: Adenosine A1 Receptor Functional Assay (A1GAL2); assay type: cell-based; details: CHO-K1 cells overexpressing human A1 receptor, cAMP inducible beta-galactosidase reporter, 4 nM r-PIA/1 uM Forskolin agonist challenge; read-out: A1GAL2_v3 Ki
# T1 construct: expressed in transfected cells; host or cells: CHO-K1
# T1 sequence (P30542 1-326): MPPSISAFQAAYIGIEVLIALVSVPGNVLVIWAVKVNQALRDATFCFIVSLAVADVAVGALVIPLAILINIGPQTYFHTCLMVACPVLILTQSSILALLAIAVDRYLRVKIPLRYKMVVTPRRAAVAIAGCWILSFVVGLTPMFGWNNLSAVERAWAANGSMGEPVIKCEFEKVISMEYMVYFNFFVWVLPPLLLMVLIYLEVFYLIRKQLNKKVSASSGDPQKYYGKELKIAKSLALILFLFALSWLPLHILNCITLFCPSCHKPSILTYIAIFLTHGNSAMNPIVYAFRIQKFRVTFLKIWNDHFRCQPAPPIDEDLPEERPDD
# Protocol: Adenosine A1 Receptor Functional Assay (A1GAL2)
# (§1) To initiate the functional assay, cryopreserved CHO-K1 cells overexpressing the human adenosine A1 receptor and containing a cAMP inducible beta-galactosidase reporter gene were thawed, centrifuged, DMSO containing media removed, and then seeded with fresh culture media into clear 384-well tissue culture treated plates (BD #353961) at a concentration of 10K cells/well. Prior to assay, these plates were cultured for two days at 37° C., 5% CO2, 90% Rh. On the day of the functional assay, culture media was removed and replaced with 45 uL assay medium (Hams/F-12 Modified (Mediatech # 10-080CV) supplemented w/0.1% BSA). Test compounds were diluted and 11 point curves created at a 1000× concentration in 100% DMSO. Immediately after addition of assay media to the cell plates, 50 nL of the appropriate test compound antagonist or agonist control curves were added to cell plates using a Cartesian Hummingbird. Compound curves were allowed to incubate at room temperature on cell plates for approximately 15 minutes before addition of a 4 nM r-PIA (Sigma P4532)/1 uM Forskolin (Sigma F3917) agonist challenge (5 uL volume). A control curve of r-PIA in 1 uM Forskolin, a DMSO/Media control, and a single dose of Forskolin were also included on each plate. After additions, cell plates were allowed to incubate at 37° C., 5% CO2, 90% Rh for 5.5-6 hours. After incubation, media was removed, and cell plates were washed 1×50 uL with DPBS w/o Ca & Mg (Mediatech 21-031-CV). Into dry wells, 20 uL of 1× Reporter Lysis Buffer (Promega E3971 (diluted in dH2O from 5× stock)) was added to each well and plates frozen at −20° C. overnight. For β-galactosidase enzyme colorimetric assay, plates were thawed out at room temperature and 20 μL 2× assay buffer (Promega) was added to each well. Color was allowed to develop at 37° C., 5% CO2, 90% Rh for 1-1.5 h or until reasonable signal appeared. The colorimetric reaction was stopped with the addition of 60 μL/well 1M sodium carbonate. Plates were counted at 405 nm on a SpectraMax Microplate Reader (Molecular Devices). Data was analyzed in Microsoft Excel and IC/EC50 curves were fit using a standardized macro.
# [2] = molecular target: T2, human adenosine A2a receptor (Homo sapiens, UniProt P29274); test: Adenosine A2a Receptor Functional Assay (A2AGAL2); assay type: cell-based; details: CHO-K1 cells overexpressing human A2a receptor, cAMP inducible beta-galactosidase reporter, 15 nM NECA agonist challenge; read-out: A2AGAL2_v4 Ki
# T2 construct: expressed in transfected cells; host or cells: CHO-K1
# Protocol: Adenosine A2a Receptor Functional Assay (A2AGAL2)
# as §1, with “adenosine A2a” for “adenosine A1”, “a 15” for “a 4”, “nM NECA” for “nM r-PIA”, “(Sigma E2387)” for “(Sigma P4532)/1 uM Forskolin (Sigma F3917)”, “of NECA,” for “of r-PIA in 1 uM Forskolin,”, “Forskolin (Sigma F3917)” for “Forskolin”
# [3] = molecular target: T3, human A2a adenosine receptor (Homo sapiens, UniProt P29274); test: Ligand Binding Assay for Adenosine A2a Receptor (A2A-B); details: plasma membrane of HEK293 cells, radioligand [3H]CGS21680; read-out: A2A-B_v3 Ki
# T3 construct: purchased PerkinElmer RB-HA2a; host or cells: HEK293 cell plasma membranes
# Protocol: Ligand Binding Assay for Adenosine A2a Receptor (A2A-B)
# Ligand binding assay of adenosine A2a receptor was performed using plasma membrane of HEK293 cells containing human A2a adenosine receptor (PerkinElmer, RB-HA2a) and radioligand [^3H]CGS21680 (PerkinElmer, NET1021). Assay was set up in 96-well polypropylene plate in total volume of 200 μL by sequentially adding 20 μL 1:20 diluted membrane, 130 μL assay buffer (50 mM Tris.HCl, pH7.4 10 mM MgCl2, 1 mM EDTA) containing [^3H] CGS21680, 50 μL diluted compound (4×) or vehicle control in assay buffer. Nonspecific binding was determined by […] NECA. Reaction was carried out at room temperature for 2 hours before filtering through 96-well GF/C filter plate pre-soaked in 50 mM Tris.HCl, pH7.4 containing 0.3% polyethylenimine. Plates were then washed 5 times with cold 50 mM Tris.HCl, pH7.4, dried and sealed at the bottom. Microscintillation fluid 30 μL was added to each well and the top sealed. Plates were counted on Packard Topcount for [^3H]. Data was analyzed in Microsoft Excel and GraphPad Prism programs. (Varani, K.; Gessi, S.; Dalpiaz, A.; Borea, P. A. British Journal of Pharmacology, 1996, 117, 1693)
# T2 sequence (P29274 whole entry): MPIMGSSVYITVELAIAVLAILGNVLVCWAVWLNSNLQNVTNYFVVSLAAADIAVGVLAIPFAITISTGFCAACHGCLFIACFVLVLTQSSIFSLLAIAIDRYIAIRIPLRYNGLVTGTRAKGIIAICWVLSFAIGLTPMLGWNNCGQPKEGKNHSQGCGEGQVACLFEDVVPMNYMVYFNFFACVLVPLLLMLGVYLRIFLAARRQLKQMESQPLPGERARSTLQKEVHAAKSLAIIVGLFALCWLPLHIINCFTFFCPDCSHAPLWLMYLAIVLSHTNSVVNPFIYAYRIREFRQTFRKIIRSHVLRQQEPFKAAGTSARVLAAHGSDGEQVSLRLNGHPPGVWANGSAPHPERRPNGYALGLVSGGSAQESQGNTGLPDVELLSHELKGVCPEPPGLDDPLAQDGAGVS
# T3 sequence (P29274 whole entry): as above
SMILES,Ki [1],Ki [2],Ki [3]
"Cc1csc(-c2nc(N)c3cc(CCN4CCOCC4)sc3n2)n1 [Example 4, 2-(4-Methyl-thiazol-2-yl)-6-(2-morpholin-4-yl-ethyl)-thieno[2,3-d]pyrimidin-4-ylamine]",2.37 µM,0.19 µM,–
"Nc1nc(-c2ncco2)nc2sc(CCN3CCOCC3)cc12 [Example 3, 6-(2-Morpholin-4-yl-ethyl)-2-oxazol-2-yl-thieno[2,3-d]pyrimidin-4-ylamine]",18.7 µM,0.238 µM,–
"N#Cc1cccc(-c2nc(N)c3cc([C@H](O)CN4CCOCC4)sc3n2)c1 [Example 6, 3-[4-Amino-6-(1-hydroxy-2-morpholin-4-yl-ethyl)-thieno[2,3-d]pyrimidin-2-yl]-benzonitrile]",0.317 µM,0.0298 µM,–
"CC(C)(C)c1ccc(-c2nc(N)c3cc(CCN4CCOCC4)sc3n2)s1 [Example 2, 2-(5-tert-Butyl-thiophen-2-yl)-6-(2-morpholin-4-yl-ethyl)-thieno[2,3-d]pyrimidin-4-ylamine]",> 1.31 µM,> 1.49 µM,–
"N#Cc1cccc(-c2nc(N)c3cc(CCN4CCOCC4)sc3n2)c1 [Example 5, 3-[4-Amino-6-(2-morpholin-4-yl-ethyl)-thieno[2,3-d]pyrimidin-2-yl]-benzonitrile]",0.594 µM,0.0401 µM,–
"C[C@@H]1CCC[C@H](C)N1C[C@@H](O)c1cc2c(N)nc(-c3cccc(C#N)c3)nc2s1 [Example 7, 3-{4-Amino-6-[2-(2,6-dimethyl-piperidin-1-yl)-1-hydroxy-ethyl]-thieno[2,3-d]pyrimidin-2-yl}-benzonitrile]",0.855 µM,0.195 µM,–
"Cc1ccc(-c2nc(N)c3cc(CC4CCCCC4)sc3n2)o1 [Example 1, 6-Cyclohexylmethyl-2-(5-methyl-furan-2-yl)-thieno[2,3-d]pyrimidin-4-ylamine]",3.77 µM,0.0773 µM,0.0342 µM
